According to patent US10942183B2, “Methods of detecting progesterone receptor and of detecting an expression level” (REGENTS OF THE UNIVERSITY OF MINNESOTA, priority 2017, dated 2021):

Experiments:
[1] = tested on: PR Ser294 phosphorylation; assay: PR Ser294 phosphorylation in T47D cells (Western blotting, immunofluorescence); assay type: cell-based, human; conditions: T47D cells expressing WT or KR PR; for PR Ser294 phosphorylation, ligand alone: 1 hour; for PR Ser294 phosphorylation in the presence of progesterone (co-treatment): progesterone plus antiprogestin
Method: T47D human breast cancer cell lines engineered to stably express PR variants (null, WT, K388R, or S294A) were previously described (Knutson et al. Breast Cancer Res 2012, 14:R9). T47D cells were maintained in complete minimal essential medium (cMEM) supplemented with 5% fetal bovine serum (FBS), 1% non-essential amino acids (NEAA), 1% penicillin/streptomycin, 6 ng/ml insulin (CellGro, Manassas, Va., USA, catalog #10-010-CV). T47D cells described above were engineered to also stably express RUNX2 shRNAs via the pLKO.1 knockdown expression vector system, which required 25 μg/ml puromycin for the vector. In various experiments, cells or explants were treated with E2, ICI 182 780, R5020, mifepristone, aglepristone, or onapristone (Arno Therapeutics, Inc., Flemington, N.J.).
Immunocytochemistry was performed on T47D cells expressing PR variants to measure total- and phospho-Ser294 PR levels. 500,000 cells were grown on coverslips in 6-well plates, starved in IMEM plus 5% charcoal stripped FBS, treated, and fixed with 4% paraformaldehyde for 20 min. The cells were permeabilized with 0.3% Triton-X100 before incubating with total-PR (clone Ab8, ThermoFisher Scientific, Waltham, Mass.) or custom phospho-Ser294-PR (clone 8508) antibodies. Cells were incubated with fluorescent secondary antibodies (Alexa Fluor 488) and DAPI mounting medium (Life Technologies, ThermoFisher Scientific, Waltham, Mass.) before visualizing on a Zeiss microscope with A4 and L5 filter cubes. Immunoblotting was performed as previously described (Daniel et al. Mol Endocrinol 2007, 21:2890-2906).
In addition, extensive luminal breast cancer heterogeneity may limit the ability to observe a subset of PR-driven breast cancers without patient selection. In this case, PR target gene expression may provide an accurate means of predicting which breast tumors are likely to be influenced by PR-driven biological pathways enacted by active phospho-Ser294 PRs. To probe changes in PR target gene expression in the presence or absence of commonly used PR ligands (R5020, RU486), including diverse antiprogestins (aglepristone, onapristone) currently in development for clinical use, the well characterized model system of T47D breast cancer cells, stably expressing either unmodified wild-type (WT) PR-B or a transcriptionally hyperactive form of deSUMOylated K388R PR-B (KR; this receptor faithfully mimics phosphorylated PR-B with regard to target gene selection) were used (Knutson et al. Pharmacology & therapeutics 2014, 142:114-125; Daniel et al. Mol Endocrinol 2007, 21:2890-2906). Whether the antiprogestins mifepristone (also called RU486), aglepristone, or onapristone alter PR Ser294 phosphorylation were tested in these T47D breast cancer models. Cells were treated for 1 hour with vehicle, progesterone, mifepristone, aglepristone, or onapristone and whole cell lysates were processed for Western blotting or immunofluorescence (IF) analysis (FIG. 4A, B). […] Greater loss of total KR PR protein was also apparent in the presence of progesterone and selected antiprogestins relative to liganded WT PR, consistent with increased turnover of deSUMOylated active receptors relative to intact WT PRs.

[2] = tested on: PR target gene expression; assay: Global gene expression analysis (Illumina HT-12v4) in T47D cells expressing WT or K388R PR-B; assay type: cell-based, human; conditions: for regulation of PR target genes in cells expressing KR PR: T47D KR PR
Method: For genome-wide microarray expression analysis, T47D cells expressing pIRES-neo3 empty vector, WT PR, or K388R PR were serum starved in modified improved minimum essential media (IMEM) (Gibco, ThermoFisher Scientific, Waltham, Mass.) for one day before treatment. Eight groups were treated with vehicle control, progesterone (10^−8 M), mifepristone (10^−7 M), aglepristone (10^−7 M), onapristone (10^−7 M), or combined treatment of progesterone+mifepristone, progesterone+aglepristone, or progesterone+onapristone for six hours before RNA extraction using a RNeasy kit (QIAgen). DNase I treated (QIAgen) RNA samples from triplicate experiments were prepared for expression analysis using the Illumina HT-12v4 bead chip platform according to standard protocols. Raw data from agonist-treated cells (progesterone or R5020) collected from two identically performed independent experiments (from this study and a previous study: GSE34148 (Knutson et al. Breast Cancer Res 2012, 14:R95)) was combined, normalized, and batch-corrected to ensure that gene expression values were informative across samples from separate experiments. Data were analyzed within multiple common R (R Core Team: R: A language and environment for statistical computing. R Foundation for Statistical Computing, Vienna, Austria 2015, [available on the world wide web at r-project.org/]) and Bioconductor (Gentleman et al. Genome Biol 2004, 5:R80) packages. Raw intensities were log 2 transformed and quantile normalized using lumi (Du et al. Bioinformatics 2008, 24:1547-1548), batch corrected using sva (Leek et al.: sva: Surrogate Variable Analysis. R package version 3.18.0.), and multiple probes for a single gene were collapsed using genefilter (Gentleman et al.: genefilter: genefilter: methods for filtering genes from high-throughput experiments. R package version 1.52.1). Differentially expressed genes (pairwise comparisons between all eight groups) were analyzed in limma (Smyth: Limma: linear models for microarray data. In: Bioinformatics and computational biology solutions using R and Bioconductor. edn.: Springer; 2005: 397-420), where empirical Bayes was used to better estimate the variance of the genes. Biological comparisons (for example, R5020/vehicle) were presented as log 2 fold change including the Benjamini and Hochberg (BH) adjusted P value (Benjamini et al. J Roy Stat Soc B Met 1995, 57:289-300) to account for multiple hypothesis testing. Expression data is available in the GEO database, accession: GSE94363.
Normalized gene expression data were filtered to isolate only high variance genes using the bioconductor package genefilter (Gentleman et al.: genefilter: genefilter: methods for filtering genes from high-throughput experiments. In., R package version 1.50.0 edn: R package version 1.50.0) using interquartile range cutoff value of 0.85. Non-negative matrix factorization (NMF) was performed within R using the NMF package version 0.20.5 (Gaujoux et al. BMC bioinformatics 2010, 11:367) where matrix factors were rank (2-10) and algorithm (brunet or snmf/r) optimized using the nmf function with parameters nrun=30 and seed=123456. […] Clustering and plots were performed in R (NMF package, a heat map function) using Euclidean distance and UPGMA (average) linkage.
PR ligand-mediated promoter selectivity remains understudied, especially in the context of antiprogestins and posttranslationally modified PR species. […]

| SMILES | PR Ser294 phosphorylation, ligand alone [1] | PR Ser294 phosphorylation in the presence of progesterone (co-treatment) [1] | regulation of PR target genes in cells expressing KR PR ([2]; antiprogestin 10^-7 M, 6 hours) | regulation of PR target genes in cells expressing WT PR ([2]; T47D WT PR, antiprogestin 10^-7 M, 6 hours) | PR transcriptional activity (hierarchical clustering of regulated genes) ([2]; T47D WT or KR PR, compared with PR-null cells) |
| --- | --- | --- | --- | --- | --- |
| CC#C[C@]1(O)CC[C@H]2[C@@H]3CCC4=CC(=O)CCC4=C3[C@@H](c3ccc(N(C)C)cc3)C[C@@]21C [mifepristone] | stimulated robust PR Ser294 phosphorylation | also induced Ser294 phosphorylation | substantially regulate multiple genes in cells expressing KR PR |  |  |
| CN(C)c1ccc([C@H]2C[C@]3(C)[C@@H](CC[C@]3(O)CCCO)[C@@H]3CCC4=CC(=O)CCC4=C32)cc1 [onapristone] | had no effect on PR Ser294 phosphorylation | blocked Ser294 phosphorylation in the presence of progesterone | does not substantially regulate PR target genes in either cell line | does not substantially regulate PR target genes in either cell line | effectively inhibited PR (either WT or KR) transcriptional activity comparable to the level found in PR-null (control) cells |
| CC(=O)[C@H]1CC[C@H]2[C@@H]3CCC4=CC(=O)CC[C@]4(C)[C@H]3CC[C@]12C [progesterone] | stimulated PR Ser294 phosphorylation |  |  |  |  |
